Source: patent US7943551B2, “3-cyclopropyl-4-(3-thiobenzoyl) pyrazoles and their use as herbicides” (Bayer Cropscience AG, priority 2007, dated 2011)

Assays:
Assay type in all cases: in vivo
[1] = test system: Viola tricolor; assay: Post-emergence herbicidal action; conditions: read-out: Herbicidal activity in % against VIOTR; for pest or weed control at 80 g/ha: 80 g of a.i./ha; for pest or weed control at 20 g/ha: 20 g of a.i./ha
Experimental: (§1) Seeds of mono- and dicotyledonous harmful plants are placed in sandy loam in cardboard pots, covered with soil and grown in the greenhouse under good growth conditions. Two to three weeks after sowing, the test plants are treated at the three-leaf stage. The compounds according to the invention, which are formulated as wettable powders or as emulsion concentrates, are sprayed at an application rate of 600 to 800 l of water/ha (converted) in a dosage of 80 grams per hectare onto the surface of the green plant parts. The visual scoring of the damage to the harmful plants is carried out 3-4 weeks after the treatment. Here, the compounds of Nos. 1-39, 1-40, 1-1382 and 1-2091 show an activity of at least 90% against Echinochloa crus galli. The compounds of Nos. 1-3, 1-44 and 1-2091 shown an activity of at least 90% against Abutilon theophrasti. The compounds of Nos. 1-39, 1-40 and 1-1382 show an activity of at least 90% against Veronica persica. The compounds of Nos. 1-3, 1-38, 1-39, 1-1406 and 1-1407 show an activity of at least 90% against Stellaria media.
(§2) The comparative tests of Tables 1 to 24 below show the superiority of the compounds according to the invention over the compounds known from the prior art.
(§3) • ABUTH Abutilon theophrasti ALOMY Alopecurus myosuroides • AMARE Amaranthus retroflexus AVEFA Avena fatua • CHEAL Chenopodium album ECHCG Echinochloa crus galli • GALAP Galium aparine LOLMU Lolium multiflorum • MATIN Matricaria inodora PHBPU Pharbitis purpureum • POLCO Fallopia convolvulus STEME Stellaria media • VERPE Veronica persica VIOTR Viola tricolor • XANST Xanthium strumarium Crop Plants • GLXMA Glycine max (soybeans) TRZAS Triticum aestivum (wheat) • ZEAMX Zea mays (corn)

[2] = test system: Pharbitis purpureum; assay: Post-emergence herbicidal action; conditions: 80 g of a.i./ha
Experimental: as §1, §2, §3

[3] = test system: Fallopia convolvulus; assay: Post-emergence herbicidal action; conditions: 80 g of a.i./ha
Experimental: as §1, §2, §3

[4] = test system: Xanthium strumarium; assay: Pre-emergence herbicidal action; conditions: 320 g of a.i./ha
Text: (§4) Seeds or rhizome pieces of mono- and dicotyledonous harmful plants are placed in sandy loam in pots of a diameter of 9 to 13 cm and covered with soil. The herbicides, formulated as emulsifiable concentrates or dusts, are applied to the surface of the covering soil in the form of aqueous dispersions or suspensions or emulsions at an application rate of 300 to 800 l of water/ha (converted), at a dosage of 320 grams per hectare. For further cultivation of the plants, the pots are then kept in a greenhouse under optimum conditions. The visual scoring of the damage to the harmful plants is carried out 3-4 weeks after the treatment. Here, the compounds of Nos. 1-3, 1-15, 1-44 and 1-1407 show an activity of at least 90% against Echinochloa crus galli. The compounds of Nos. 1-15, 1-45, 1-1407 and 1-1419 show an activity of at least 90% against Abutilon theophrasti. The compounds of Nos. 1-3, 1-45, 1-1406 and 1-1418 show an activity of at least 90% against Amaranthus retroflexus. The compounds of Nos. 1-44, 1-1406, 1-1407 and 1-1419 show an activity of at least 90% against Stellaria media.
as §2, §3

[5] = test system: Pharbitis purpureum; assay: Pre-emergence herbicidal action; conditions: 320 g of a.i./ha
Text: as §4, §2, §3

[6] = test system: Fallopia convolvulus; assay: Pre-emergence herbicidal action; conditions: 320 g of a.i./ha
Text: as §4, §2, §3

[7] = test system: Matricaria inodora; assay: Pre-emergence herbicidal action; conditions: Tripleurospermum inodorum, read-out: Herbicidal activity in % against MATIN; for pest or weed control at 80 g/ha: 80 g of a.i./ha; for pest or weed control at 320 g/ha: 320 g of a.i./ha
Text: as §4, §2, §3

[8] = test system: Veronica persica; assay: Pre-emergence herbicidal action; conditions: 80 g of a.i./ha
Text: as §4, with “at a dosage of 320 grams per hectare.” left out
as §2, §3

[9] = test system: Stellaria media; assay: Pre-emergence herbicidal action; conditions: 80 g of a.i./ha
Text: as §4, with “at a dosage of 320 grams per hectare.” left out
as §2, §3

[10] = test system: Abutilon theophrasti; assay: Pre-emergence herbicidal action; conditions: 320 g of a.i./ha, visual scoring 3-4 weeks after treatment
Text: as §4, §2, §3

[11] = test system: Viola tricolor; assay: Pre-emergence herbicidal action; conditions: 320 g of a.i./ha
Text: as §4, with “at a dosage of 320 grams per hectare.” left out
as §2, §3

[12] = test system: Amaranthus retroflexus; assay: Pre-emergence herbicidal action
Text: as §4, with “at a dosage of 320 grams per hectare.” left out
as §2, §3

[13] = test system: Veronica persica; assay: Post-emergence herbicidal action; conditions: read-out: Herbicidal activity in % against VERPE; for pest or weed control at 80 g/ha: 80 g of a.i./ha, visual scoring 3-4 weeks after treatment; for pest or weed control at 20 g/ha: 20 g of a.i./ha
Experimental: as §1, §2, §3

[14] = test system: Triticum aestivum (wheat); assay: Post-emergence damage of crop plants; conditions: crop plant wheat
Experimental: as §1, with “The compounds according to the invention, which are formulated as wettable powders or as emulsion concentrates, are sprayed at an application rate of 600 to 800 l of water/ha (converted) in a dosage of 80 grams per hectare onto the surface of the green plant parts.” left out
as §2, §3

[15] = test system: Galium aparine; assay: Post-emergence herbicidal action
Experimental: as §1, with “The compounds according to the invention, which are formulated as wettable powders or as emulsion concentrates, are sprayed at an application rate of 600 to 800 l of water/ha (converted) in a dosage of 80 grams per hectare onto the surface of the green plant parts.” left out
as §2, §3

[16] = test system: Zea mays (corn); assay: Post-emergence damage of crop plants; conditions: 20 g of a.i./ha, crop plant corn
Experimental: as §1, with “The compounds according to the invention, which are formulated as wettable powders or as emulsion concentrates, are sprayed at an application rate of 600 to 800 l of water/ha (converted) in a dosage of 80 grams per hectare onto the surface of the green plant parts.” left out
as §2, §3

[17] = test system: Chenopodium album; assay: Pre-emergence herbicidal action; conditions: 320 g of a.i./ha
Text: as §4, §2, §3

[18] = test system: Galium aparine; assay: Pre-emergence herbicidal action; conditions: 320 g of a.i./ha
Text: as §4, §2, §3

[19] = test system: Glycine max (soybeans); assay: Pre-emergence damage of crop plants; conditions: 320 g of a.i./ha, crop plant soybeans
Text: as §4, §2, §3

[20] = test system: Triticum aestivum (wheat); assay: Pre-emergence damage of crop plants; conditions: 320 g of a.i./ha, crop plant wheat
Text: as §4, §2, §3

[21] = test system: Matricaria inodora; assay: Post-emergence herbicidal action; conditions: Tripleurospermum inodorum, 80 g of a.i./ha, read-out: Herbicidal activity in % against MATIN
Experimental: as §1, §2, §3

[22] = test system: Xanthium strumarium; assay: Post-emergence herbicidal action; conditions: 80 g of a.i./ha, read-out: Herbicidal activity in % against XANST
Experimental: as §1, §2, §3

[23] = test system: Stellaria media; assay: Post-emergence herbicidal action; conditions: Stellaria media, 80 g of a.i./ha, visual scoring 3-4 weeks after treatment, read-out: Herbicidal activity in % against STEME
Experimental: as §1, §2, §3

[24] = 320 g of a.i./ha, visual scoring 3-4 weeks after treatment

CCOCCSc1c(S(C)(=O)=O)ccc(C(=O)c2c(C3CC3)nn(C)c2O)c1C
pest or weed control at 80 g/ha [1]: 80%
Herbicidal activity in % against PHBPU [2]: 60%
Herbicidal activity in % against POLCO [3]: 70%

COCCS(=O)(=O)c1c(S(C)(=O)=O)ccc(C(=O)c2c(C3CC3)nn(C)c2O)c1C [drawing 13]
Herbicidal activity in % against XANST [4]: 70%
Herbicidal activity in % against PHBPU [5]: 60%
Herbicidal activity in % against POLCO [6]: 60%

CCS(=O)(=O)c1c(S(C)(=O)=O)ccc(C(=O)c2c(C3CC3)nn(C)c2O)c1C [drawing 14, reference compound]
Herbicidal activity in % against XANST [4]: 0%
Herbicidal activity in % against PHBPU [5]: 20%
Herbicidal activity in % against POLCO [6]: 20%

Cc1c(C(=O)c2c(C3CC3)nn(C)c2O)ccc(S(C)(=O)=O)c1S(=O)(=O)CC1CC1 [drawing 15]
Herbicidal activity in % against XANST [4]: 60%
Herbicidal activity in % against PHBPU [5]: 50%
Herbicidal activity in % against POLCO [6]: 50%

COCCSc1c(Cl)ccc(C(=O)c2c(C3CC3)nn(C)c2O)c1C [drawing 17]
pest or weed control at 80 g/ha [7]: 60%
Herbicidal activity in % against VERPE [8]: 90%
Herbicidal activity in % against STEME [9]: 90%

CCSc1c(Cl)ccc(C(=O)c2c(C3CC3)nn(C)c2O)c1C [drawing 18, reference compound]
pest or weed control at 80 g/ha [7]: 30%
Herbicidal activity in % against VERPE [8]: 30%
Herbicidal activity in % against STEME [9]: 60%

COCCSc1c(S(C)(=O)=O)ccc(C(=O)c2c(C3CC3)nn(C)c2O)c1Cl [drawing 23]
Herbicidal activity in % against ABUTH [10]: 100%
pest or weed control at 320 g/ha [7]: 60%
Herbicidal activity in % against POLCO [6]: 50%
Herbicidal activity in % against VIOTR [11]: 100%
Herbicidal activity in % against AMARE [12, 24]: 100%

CCSc1c(S(C)(=O)=O)ccc(C(=O)c2c(C3CC3)nn(C)c2O)c1Cl [drawing 24]
Herbicidal activity in % against ABUTH [10]: 70%
pest or weed control at 320 g/ha [7]: 0%
Herbicidal activity in % against POLCO [6]: 0%
Herbicidal activity in % against VIOTR [11]: 50%
Herbicidal activity in % against AMARE [12, 24]: 90%

CSc1c(S(C)(=O)=O)ccc(C(=O)c2c(C3CC3)nn(C)c2O)c1Cl [drawing 26]
Herbicidal activity in % against ABUTH [10]: 60%
pest or weed control at 320 g/ha [7]: 0%
Herbicidal activity in % against POLCO [6]: 40%
Herbicidal activity in % against VIOTR [11]: 50%
Herbicidal activity in % against AMARE [12, 24]: 90%

CSc1c(S(C)(=O)=O)ccc(C(=O)c2c(C3CC3)nn(C)c2O)c1C [drawing 32, reference compound]
Herbicidal activity in % against PHBPU [2]: 40%
Herbicidal activity in % against POLCO [3]: 50%

COCC[S+]([O-])c1c(S(C)(=O)=O)ccc(C(=O)c2c(C3CC3)nn(C)c2O)c1C (centres unmarked) [drawing 33]
pest or weed control at 80 g/ha [1]: 70%
pest or weed control at 80 g/ha [13]: 100%
Damage to TRZAS ([14]; 80 g of a.i./ha): 20

COCCS(=O)(=O)c1c(S(C)(=O)=O)ccc(C(=O)c2c(C3CC3)nn(C)c2O)c1C [drawing 35]
pest or weed control at 20 g/ha [1]: 70%
pest or weed control at 20 g/ha [13]: 90%
Herbicidal activity in % against GALAP ([15]; 20 g of a.i./ha): 50%
Damage to ZEAMX [16]: 0
Damage to TRZAS ([14]; 20 g of a.i./ha): 0

CCS(=O)(=O)c1c(S(C)(=O)=O)ccc(C(=O)c2c(C3CC3)nn(C)c2O)c1C [drawing 36, reference compound]
pest or weed control at 20 g/ha [1]: 20%
pest or weed control at 20 g/ha [13]: 20%
Herbicidal activity in % against GALAP ([15]; 20 g of a.i./ha): 20%
Damage to ZEAMX [16]: 10
Damage to TRZAS ([14]; 20 g of a.i./ha): 80

Cc1c(C(=O)c2c(C3CC3)nn(C)c2O)ccc(S(C)(=O)=O)c1S(=O)(=O)CC1CC1 [drawing 37]
Herbicidal activity in % CHEAL [17]: 100%
Herbicidal activity in % GALAP [18]: 100%
Damage to GLXMA [19]: 0
Damage to TRZAS [20]: 0

Cc1c(C(=O)c2c(C3CC3)nn(C)c2O)ccc(Cl)c1SCC1CC1 [drawing 43]
Herbicidal activity in % against AMARE ([12]; 80 g of a.i./ha): 80%
Herbicidal activity in % against VERPE [8]: 70%
Herbicidal activity in % against STEME [9]: 90%

Cn1nc(C2CC2)c(C(=O)c2ccc(Cl)c(S(=O)(=O)CC3CC3)c2Cl)c1O [drawing 57]
pest or weed control at 80 g/ha [21]: 50%
pest or weed control at 80 g/ha [22]: 90%
pest or weed control at 80 g/ha [13]: 90%
pest or weed control at 80 g/ha [23]: 100%
Herbicidal activity in % against GALAP ([15]; 80 g of a.i./ha): 70%

Cn1nc(C2CC2)c(C(=O)c2ccc(Cl)c(S(C)(=O)=O)c2Cl)c1O [drawing 58, reference compound]
pest or weed control at 80 g/ha [21]: 0%
pest or weed control at 80 g/ha [22]: 70%
pest or weed control at 80 g/ha [13]: 60%
pest or weed control at 80 g/ha [23]: 80%
Herbicidal activity in % against GALAP ([15]; 80 g of a.i./ha): 40%

Cc1c(C(=O)c2c(C3CC3)nn(C)c2O)ccc(S(C)(=O)=O)c1[S+](C)[O-] (centres unmarked) [reference compound]
pest or weed control at 80 g/ha [1]: 60%
pest or weed control at 80 g/ha [13]: 80%
Damage to TRZAS ([14]; 80 g of a.i./ha): 50

CSc1c(Cl)ccc(C(=O)c2c(C3CC3)nn(C)c2O)c1C [reference compound]
Herbicidal activity in % against AMARE ([12]; 80 g of a.i./ha): 70%
Herbicidal activity in % against VERPE [8]: 50%
Herbicidal activity in % against STEME [9]: 80%
